Test results: US7544666B2, “NAP derivatives” (Industrial Technology Research Institute, priority 2005, dated 2009)

How the values were obtained:
[1] = Stability in Hanks' balanced salt solution (HBSS); format: physicochemical; conditions: 37° C., relative to initial conc. in HBSS = 100.00
Procedure: (§1) The stability of the NAP derivatives prepared by EXAMPLE 1 was measured with the system of human colon cancer cell, Caco-2 cell. Caco-2 cells (1×10^5 cells) were first seeded into a polycarbonate film on the upper layer of a 12-well Transwell and incubated for 18 to 26 days at 37° C. The TEER of the Caco-2 cell monolayer was measured over 350 Ω×cm^2. The stability of the NAP derivatives in the Hanks' balanced salt solutions (HBSS) was measured by the concentration changes of NAP and the NAP derivatives incubated in the HBSS at 37° C. for 4 hours. The stability of the NAP derivatives in the Caco-2 cell system was measured by the procedure described below. NAP and the NAP derivatives in the HBSS were added into the upper layer of the Caco-2 cell-seeded Transwell. After 4-hour incubation, the concentration of NAP and the NAP derivatives in the upper and lower layers was measured and analyzed in comparison with the initial concentration (500 μM) by reverse HPLC at 210 nm.

Caco-2 cell = assay: Stability in the Caco-2 cell system; format: in vitro ADME, human; conditions: 4-hour incubation in Caco-2 Transwell; relative to initial conc. = 100.00 (500 μM)
Procedure: as §1

Caco-2 cell monolayer = assay: Permeation to Caco-2 cell monolayer; format: in vitro ADME, human; set-up: unit not given here; conditions: 4-hour incubation, initial concentration 500 μM in upper layer
Procedure: The permeation of NAP and the NAP derivatives was examined using the Caco-2 cell system. Caco-2 cells (1×10^5 cells) were seeded into the polycarbonate film on the upper layer of a 12-well Transwell and incubated at 37° C. for 18 to 26 days. The TEER of the Caco cell monolayer was measured over 350 Ω×cm^2. NAP and the NAP derivatives in the HBSS were added into the upper layer of the Caco-2 cell-seeded Transwell. After 4-hour incubation, the concentration of NAP and the NAP derivatives in the upper and lower layers was measured and analyzed in comparison with the initial concentration (500 μM) by reverse phase HPLC at 210 nm.

[2] = test system: scopolamine-induced amnesia rats; assay: Morris water maze in scopolamine-induced amnesia rats; format: in vivo, rat; conditions: 0.25 mg/kg subcutaneous, 5 min after scopolamine 1 mg/kg i.p.; FIG. 11
Procedure: Scopolamine-induced amnesia […] were used in combination of Morris water maze, a memory and behavior analysis system, to assess the in vivo effects of the NAP derivative BMEC-NAP0701 and NAP.
Sprague-Dawley male rats with body weight of 220-250 g obtained from the National Laboratory Animal Center, Taiwan, were caged in an air-conditioned housing with a temperature of 23±1° C. and kept on an alternating 12-hour light and 12-hour dark schedule with sufficient feed and water. […]
Morris Water Maze was performed with a water maze device containing a stainless pool with a size of 160 cm in diameter, 50 cm in height, and 15 mm in thickness of the wall and a platform with a size of 11 cm in diameter, and 22 cm in height. […] The swimming time and track were recorded by VEDEOMEX-V video tracing system, video recorder, and monitor (Columbus Instruments) and analyzed by Water Maze Program (Columbus Instruments). […]
Late of the third day: Two to four hours after the third day training, the platform was removed from the pool. The trained rats were separately sent to quadrant I and the swimming track was recorded for 60 sec. The time spent in finding the original platform was also recorded. […]
Early of the fifth day: The platform was placed in the quadrant II and submerged beneath water level about 1 cm. The rats were separately sent to quadrant I and the time spent in finding the platform was recorded. […]

Conc. after 4-hour in HBSS [1]: 98.62
Conc. after 4-hour in Caco-2 cells (Caco-2 cell): 78.97
Conc. at the lover layer (Caco-2 cell monolayer): 0.28
Structure (SMILES): CC[C@H](C)[C@H](NC(=O)[C@H](CO)NC(=O)[C@@H](NC(=O)[C@@H]1CCCN1C(=O)[C@H](C)NC(=O)[C@H](CC(N)=O)NC(=O)c1ccccc1)C(C)C)C(=O)N1CCC[C@H]1C(=O)N[C@@H](CCC(N)=O)C(=O)O [BMEC-NAP0701, Benzoyl-NAPVSIPQ-OH]
memory improving effect (time spent in finding the platform vs scopolamine-induced rats) [2]: memory improving effect similar to NAP in vivo
